Measured values reported in patent publication US20080312435A1, “Imine Compound” (TAISHO PHARMACEUTICAL CO., LTD., priority 2004, published 2008).

Tests used:
[1] = biological target: T1, human CB2 receptor (Homo sapiens, UniProt P34972); assay: Human CB2 receptor binding inhibition test ([3H]CP-55,940, CHO membrane fractions); details: [3H]CP-55,940, membrane fractions of CHO cells stably expressing human CB2 receptor, 25° C., 2 hours; read-out: CB2 IC50 (Inhibition of binding to human CB2 receptor)
T1 construct: expressed in transfected cells
In short: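 Membranes from CHO-DHFR(−) cells stably expressing human CB2 used for [3H]CP-55,940 binding; filter-bound radioactivity counted by scintillation after washes with 0.1% BSA buffer. Nonspecific binding defined with 2.0 μM CP-55,940; IC50 for inhibition of specific binding.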

[2] = biological target: T1, human CB2 receptor; assay: Test for GTPγS binding via human CB2 receptor; format: biochemical; details: human CB2 receptor CHO membrane fractions; read-out: EC50 value (effective concentration exhibiting 50% activity), GTPγS binding
Method: Test for GTPγS Binding Via Human CB2 Receptor
The CHO cells capable of stably expressing the human CB2 receptor were prepared in the same manner as in Experimental Example 1.

[3] = tested on: Jcl: ICR-series male mice; assay: Writhing test with acetic acid in mouse; format: in vivo; details: orally administered 30 mg/kg, acetic acid i.p. one hour after administration
Method: Writhing Test with Acetic Acid in Mouse
This test was performed in accordance with the method of Futaki N et al. (Gen Pharmacol. 24(1):105-110 (1993). A test compound suspended in a 5% gum Arabic solution was orally administered to Jcl: ICR-series male mice (5 weeks old). One hour after the administration of the test compound, a 0.9% aqueous acetic acid solution was intraperitoneally administered. Five minutes after the administration, the number of abdomen stretch movements (pain-related behavior) were counted for 10 minutes. Only the 5% gum Arabic solution was orally administered to the control group. A pain-related behavior inhibition rate (%) was obtained based on the following equation.

[4] = biological target: T2, human CB1 receptor (Homo sapiens, UniProt P21554); assay: Human CB1 receptor binding inhibition test; details: CHO-DHFR(−) cells stably expressing human CB1 receptor, same manner as Experimental Example 1
T2 construct: expressed in transfected cells
Method: Human CB1 Receptor Binding Inhibition Test
The CHO-DHFR(−) cells capable of stably expressing a CB1 receptor were prepared in the same manner as in Experimental Example 1. The binding test to the human CB1 receptor was performed to obtain 50% inhibitory concentration (IC50 value) of a test compound.

[5] = tested on: Balb/c male mice; assay: Test for edema on ear in mouse (PMA-induced); format: in vivo; details: 1 mg per murine ear, PMA 0.8 μg, measured five hours later
Method: Test for Edema on Ear in Mouse
Using Balb/c male mice (5 weeks old), a test compound dissolved in acetone was applied in an amount of 20 μL to the inside the ear. Ten minutes after the application of the test compound, an acetone solution (20 μL) containing 0.8 μg of PMA (phorbol 12-myristate 13-acetate) was applied. Five hours later, the thickness (hyperplasia) of the ear was measured by a dial sickness gauge. Acetone alone was applied to the control group. The inhibition rate (%) of edema on the ear was calculated based on the following equation.

T1 sequence (P34972 whole entry): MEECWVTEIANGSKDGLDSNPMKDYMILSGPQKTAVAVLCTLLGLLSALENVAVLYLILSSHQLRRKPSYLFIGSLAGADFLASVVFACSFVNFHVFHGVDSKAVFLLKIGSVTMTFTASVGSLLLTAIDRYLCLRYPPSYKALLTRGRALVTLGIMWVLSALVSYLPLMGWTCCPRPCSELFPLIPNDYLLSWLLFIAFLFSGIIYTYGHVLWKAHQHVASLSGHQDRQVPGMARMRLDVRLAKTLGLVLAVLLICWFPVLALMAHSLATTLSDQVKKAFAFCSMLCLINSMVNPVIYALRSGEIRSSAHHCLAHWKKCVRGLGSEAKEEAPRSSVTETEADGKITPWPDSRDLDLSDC
T2 sequence (P21554 whole entry): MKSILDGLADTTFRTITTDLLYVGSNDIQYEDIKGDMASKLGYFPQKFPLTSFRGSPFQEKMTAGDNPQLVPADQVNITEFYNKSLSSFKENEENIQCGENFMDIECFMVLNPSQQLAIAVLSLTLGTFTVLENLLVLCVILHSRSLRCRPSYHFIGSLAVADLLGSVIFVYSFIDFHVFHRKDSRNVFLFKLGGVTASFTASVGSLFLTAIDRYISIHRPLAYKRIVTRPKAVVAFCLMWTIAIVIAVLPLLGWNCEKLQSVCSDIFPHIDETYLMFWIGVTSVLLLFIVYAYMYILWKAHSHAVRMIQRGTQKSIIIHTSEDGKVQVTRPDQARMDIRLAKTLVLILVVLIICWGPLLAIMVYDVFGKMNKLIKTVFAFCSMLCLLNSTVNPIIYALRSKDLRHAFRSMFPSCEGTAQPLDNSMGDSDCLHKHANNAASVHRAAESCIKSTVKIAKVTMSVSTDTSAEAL

Compound | IC50 [1] [nM] | EC50 [2] [nM] | melting point [°C] | pain-related behavior inhibition rate [3] [%] | IC50 [4] [nM] | inhibition rate of edema on the ear [5] [%]
O=C(/N=c1\ccccn1CC1CC1)c1cccc(C(F)(F)F)c1F [compound 9] | 11.3 | 23.7 | 58.5 to 59 | – | – | –
COc1ccc(C(F)(F)F)cc1C(=O)/N=c1\cc(C(C)(C)C)sn1CC1CC1 [compound 59] | 7.2 | – | 95 to 97 | 44.8 | – | –
COc1cccc(C(=O)/N=c2\sc(C(C)(C)C)c(C)n2CC2CC2)c1OC [compound 235] | 3.4 | – | 93 to 94 | – | 315 | –
CCOc1ccc(C(=O)/N=c2\sc(C(C)(C)C)c(C)n2CC2CC2)c(OCC)c1 [compound 237] | 13.1 | – | 116 to 118 | – | 200 | –
Cc1c(F)cccc1C(=O)/N=c1\sc(C(C)(C)C)c(C)n1CC1CC1 [compound 240] | 3.4 | – | 94 to 96 | – | 168 | –
Cc1c(Cl)cccc1C(=O)/N=c1\sc(C(C)(C)C)c(C)n1CC1CC1 [compound 243] | 0.4 | – | 88 to 90 | – | 73 | –
Cc1c(Br)cccc1C(=O)/N=c1\sc(C(C)(C)C)c(C)n1CC1CC1 [compound 245] | 0.8 | – | 89 to 90 | – | 32 | –
Cc1ccc(C(=O)/N=c2\sc(C(C)(C)C)c(C)n2CC2CC2)c(Br)c1 [compound 246] | 0.8 | – | 82 to 84 | – | 319 | –
Cc1c(C(C)(C)C)s/c(=N\C(=O)c2c(F)cccc2C(F)(F)F)n1CC1CC1 [compound 256] | 1.1 | – | 128 to 130 | – | 102 | –
Cc1c(C(C)(C)C)s/c(=N\C(=O)c2cccc(C(F)(F)F)c2Cl)n1CC1CC1 [compound 258] | 0.6 | – | 93 to 94 | – | 19 | –
COc1ccc(C(=O)/N=c2\sc(C(C)(C)C)c(C)n2CC2CC2)c(C)c1 [compound 261] | 1 | – | 95 to 96 | – | 375 | –
COc1ccc(F)cc1C(=O)/N=c1\sc(C(C)(C)C)c(C)n1CC1CC1 [compound 262] | 0.6 | – | 87 to 89 | – | 435 | –
COc1cccc(F)c1C(=O)/N=c1\sc(C(C)(C)C)c(C)n1CC1CC1 [compound 263] | 0.6 | – | 119 to 121 | – | 56 | –
COc1cc(Cl)ccc1C(=O)/N=c1\sc(C(C)(C)C)c(C)n1CC1CC1 [compound 264] | 1 | – | 163 to 165 | – | 181 | –
COc1ccc(Cl)cc1C(=O)/N=c1\sc(C(C)(C)C)c(C)n1CC1CC1 [compound 265] | 1 | – | 98 to 100 | – | 100 | –
COc1ccc(C(F)(F)F)cc1C(=O)/N=c1\sc(C(C)(C)C)c(C)n1CC1CC1 [compound 267] | 1.1 | 0.4 | 175 to 177 | 59.9 | – | 84
COc1ccc(C(=O)/N=c2\sc(C(C)(C)C)c(C)n2CC2CC2)c(OC)c1OC [compound 286] | 12.7 | – | 88 to 89 | – | 435 | –
Cc1c(C(C)(C)C)s/c(=N\C(=O)c2c(F)ccc(C(F)(F)F)c2F)n1CC1CC1 [compound 288] | 0.2 | – | 109 to 111 | – | 49 | –

Compound | IC50 [1] [nM] | EC50 [2] [nM] | melting point [°C] | pain-related behavior inhibition rate [3] [%] | IC50 [4] [nM] | inhibition rate of edema on the ear [5] [%]
Cc1c(C(C)(C)C)s/c(=N\C(=O)c2c(C(F)(F)F)ccc(Cl)c2F)n1CC1CC1 [compound 289] | 0.5 | – | 182 to 183 | – | 136 | –
Cc1ccnc(C)c1C(=O)/N=c1\sc(C(C)(C)C)c(C)n1CC1CC1 [compound 299] | 2.8 | – | 156 to 157 | – | 28 | –
Cc1c(C(C)(C)C)s/c(=N\C(=O)c2cccnc2Cl)n1CC1CC1 [compound 301] | 2 | – | 124 to 125 | – | 191 | –
Cc1c(C(C)(C)C)s/c(=N\C(=O)c2ncccc2Br)n1CC1CC1 [compound 304] | 2.3 | – | 141 to 142 | – | 372 | –
Cc1c(C(C)(C)C)s/c(=N\C(=O)c2nc(Cl)ccc2Cl)n1CC1CC1 [compound 306] | 0.5 | – | 143 to 145 | – | 68 | –
Cc1c(C(C)(C)C)s/c(=N\C(=O)c2c(Cl)cncc2Cl)n1CC1CC1 [compound 308] | 3.6 | – | 260 to 261 | – | 336 | –
Cc1c(C(C)(C)C)s/c(=N\C(=O)c2cc(Cl)cnc2Cl)n1CC1CC1 [compound 309] | 2.1 | – | 113 to 134 | – | 405 | –
Cc1c(C(C)(C)C)s/c(=N\C(=O)c2ccnc3ccccc23)n1CC1CC1 [compound 323] | 6.2 | – | 124 to 126 | – | 362 | –
Cc1c(C(C)(C)C)s/c(=N\C(=O)c2c(Cl)ccc3cc(Cl)cnc23)n1CC1CC1 [compound 327] | 3.6 | – | 172 to 174 | – | 55 | –
Cc1c(C(C)(C)C)s/c(=N\C(=O)C2CCCCC2)n1CC1CC1 [compound 332] | 3.3 | – | 141 to 142 | – | 98 | –
Cc1c(C(C)(C)C)s/c(=N\S(=O)(=O)c2ccccc2C(F)(F)F)n1CC1CC1 [compound 411] | 8.7 | – | – | 49.0 | – | –
Cn1c(C(C)(C)C)c/c(=N\C(=O)c2cccc(C(F)(F)F)c2F)n1CC1CC1 [compound 474, N-(5-t-butyl-2-cyclopropylmethyl-1,2-dihydro-1-methylpyrazol-3-ylidene)-2-fluoro-3-(trifluoromethyl)benzamide] | 4.9 | 2.3 | – | 61.9 | – | 37
CCOCCn1/c(=N/C(=O)c2cccc(Cl)c2Cl)cc(C(C)(C)C)n1C [compound 486] | 5.1 | – | 145 to 146 | – | 211 | –
CCOCCn1/c(=N/C(=O)c2cccc(C)c2Br)cc(C(C)(C)C)n1C [compound 487] | 9.9 | – | 166 to 167 | – | 248 | –
CCOCCn1/c(=N/C(=O)c2cccc(Cl)c2C)cc(C(C)(C)C)n1C [compound 490] | 10 | – | 127 to 128 | – | 291 | –
CCOCCn1/c(=N/C(=O)c2cccc(Br)c2C)cc(C(C)(C)C)n1C [compound 491] | 9.3 | – | 125 to 126 | – | 172 | –
CC(C)(C)c1nn(CC2CC2)/c(=N/C(=O)c2nccc3ccccc23)s1 [compound 510] | 13.2 | – | 89 to 90 | 19.6 | – | –
